Test results as given in US20220151230A1, “SPECIFICALLY SUBSTITUTED 3-(2-HALOGEN-6-ALKYL-4-PROPINYLPHENYL)-3-PYRROLIN-2-ONES AND TO THE USE THEREOF AS HERBICIDES” (Bayer Aktiengesellschaft, priority 2019, published 2022).

How the values were obtained:
ECHCG [1] = assay: Pre-emergence herbicidal effect against ECHCG; assay type: in vivo, Echinochloa crus-galli; settings: 320 g/ha, scored visually after 3 weeks vs untreated controls, 100% = plants have died
Excerpt: (§1) Seeds of monocotyledonous and dicotyledonous weed plants and crop plants are laid out in sandy loam soil in wood-fiber pots and covered with soil. The compounds of the invention, formulated in the form of wettable powders (WP) or as emulsion concentrates (EC), are then applied to the surface of the covering soil as aqueous suspension or emulsion at a water application rate equating to 600 to 800 L/ha with addition of 0.2% wetting agent.
(§2) After the treatment, the pots are placed in a greenhouse and kept under good growth conditions for the trial plants. The damage to the test plants is scored visually after a test period of 3 weeks by comparison with untreated controls (herbicidal activity in percent (%): 100% activity=the plants have died, 0% activity=like control plants).

LOLRI [2] = assay: Post-emergence herbicidal effect against LOLRI; assay type: in vivo, Lolium rigidum; settings: one-leaf stage, 80 g/ha, assessed visually after about 3 weeks vs untreated controls, 100% = plants have died
Protocol: (§3) Seeds of monocotyledonous and dicotyledonous weed and crop plants are laid out in sandy loam soil in wood-fiber pots, covered with soil and cultivated in a greenhouse under good growth conditions. 2 to 3 weeks after sowing, the test plants are treated at the one-leaf stage. The compounds of the invention, formulated in the form of wettable powders (WP) or as emulsion concentrates (EC), are then sprayed onto the green parts of the plants as aqueous suspension or emulsion at a water application rate equating to 600 to 800 l/ha with addition of 0.2% wetting agent. After the test plants have been left to stand in the greenhouse under optimal growth conditions for about 3 weeks, the action of the preparations is assessed visually in comparison to untreated controls (herbicidal action in percent (%): 100% activity=the plants have died, 0% activity=like control plants).

SETVI [3] = assay: Pre-emergence herbicidal effect against SETVI; assay type: in vivo, Setaria viridis; settings: 320 g/ha, scored visually after 3 weeks vs untreated controls, 100% = plants have died
Excerpt: as §1, §2

ALOMY [4] = assay: Post-emergence herbicidal effect against ALOMY; assay type: in vivo, Alopecurus myosuroides; settings: one-leaf stage, 80 g/ha, assessed visually after about 3 weeks vs untreated controls, 100% = plants have died
Protocol: as §3

AVEFA [5] = assay: Pre-emergence herbicidal effect against AVEFA; assay type: in vivo, Avena fatua; settings: 320 g/ha, scored visually after 3 weeks vs untreated controls, 100% = plants have died
Excerpt: as §1, §2

AVEFA [6] = assay: Post-emergence herbicidal effect against AVEFA; assay type: in vivo, Avena fatua; settings: one-leaf stage, 80 g/ha, assessed visually after about 3 weeks vs untreated controls, 100% = plants have died
Protocol: as §3

SETVI [7] = assay: Post-emergence herbicidal effect against SETVI; assay type: in vivo, Setaria viridis; settings: one-leaf stage, 80 g/ha, assessed visually after about 3 weeks vs untreated controls, 100% = plants have died
Protocol: as §3

ECHCG [8] = assay: Post-emergence herbicidal effect against ECHCG; assay type: in vivo, Echinochloa crus-galli; settings: one-leaf stage, 80 g/ha, assessed visually after about 3 weeks vs untreated controls, 100% = plants have died
Protocol: as §3

LOLRI [9] = assay: Pre-emergence herbicidal effect against LOLRI; assay type: in vivo, Lolium rigidum; settings: 320 g/ha, scored visually after 3 weeks vs untreated controls, 100% = plants have died
Excerpt: as §1, §2

ALOMY [10] = assay: Pre-emergence herbicidal effect against ALOMY; assay type: in vivo, Alopecurus myosuroides; settings: 320 g/ha, scored visually after 3 weeks vs untreated controls, 100% = plants have died
Excerpt: as §1, §2

DIGSA [11] = assay: Pre-emergence herbicidal effect against DIGSA; assay type: in vivo, Digitaria sanguinalis; settings: 320 g/ha, scored visually after 3 weeks vs untreated controls, 100% = plants have died
Excerpt: as §1, §2

VIOTR = assay: Pre-emergence herbicidal effect against VIOTR; assay type: in vivo, Viola tricolor; settings: 320 g/ha, scored visually after 3 weeks vs untreated controls, 100% = plants have died
Excerpt: as §1, §2

DIGSA [12] = assay: Post-emergence herbicidal effect against DIGSA; assay type: in vivo, Digitaria sanguinalis; settings: one-leaf stage, 80 g/ha, assessed visually after about 3 weeks vs untreated controls, 100% = plants have died
Protocol: as §3

| Compound | Pre-emergence action [%] against ECHCG (ECHCG [1]) | Post-emergence action [%] against LOLRI (LOLRI [2]) | Pre-emergence action [%] against SETVI (SETVI [3]) | Post-emergence action [%] against ALOMY (ALOMY [4]) | Pre-emergence action [%] against AVEFA (AVEFA [5]) | Post-emergence action [%] against AVEFA (AVEFA [6]) | Post-emergence action [%] against SETVI (SETVI [7]) | Post-emergence action [%] against ECHCG (ECHCG [8]) | Pre-emergence action [%] against LOLRI (LOLRI [9]) | Pre-emergence action [%] against ALOMY (ALOMY [10]) | Pre-emergence action [%] against DIGSA (DIGSA [11]) | Pre-emergence action [%] against VIOTR (VIOTR) | Post-emergence action [%] against DIGSA (DIGSA [12]) |
| --- | --- | --- | --- | --- | --- | --- | --- | --- | --- | --- | --- | --- | --- |
| CC#Cc1cc(C)c(C2=C(OC(=O)OCC)C3(CCCC(OCC(C)C)C3)NC2=O)c(Cl)c1 (stereo not drawn) [Example Q8] | 100% | 90% | 100% | 100% | 100% | 100% | 100% | 100% | 100% | 100% | 100% |  |  |
| CC#Cc1cc(Cl)c(C2=C(OC(=O)OC(C)(C)C)C3(CCC(OC)CC3)NC2=O)c(CC)c1 (stereo not drawn) [Example P30] | 90% |  | 100% | 90% | 80% | 80% | 100% |  | 100% | 100% | 100% |  |  |
| CC#Cc1cc(Cl)c(C2=C(OC(=O)OCC)C3(CCC(OC)CC3)NC2=O)c(C2CC2)c1 (stereo not drawn) [Example P33] | 100% | 100% | 100% | 100% | 100% | 100% | 100% | 100% | 100% | 100% | 100% |  |  |
| CC#Cc1cc(Cl)c(C2=C(O)C3(CCC(OC)CC3)NC2=O)c(CC)c1 (stereo not drawn) [Example E20] | 100% | 80% | 100% |  | 100% | 90% | 100% | 100% | 90% | 100% | 100% | 100% | 100% |
| CC#Cc1cc(C)c(C2=C(OC(=O)OCC)C3(CCCC(OCCOC)C3)NC2=O)c(Br)c1 (stereo not drawn) [Example Q4] | 100% | 100% | 100% | 100% | 100% | 90% | 100% | 100% | 100% | 100% | 100% |  |  |
| CC#Cc1cc(Cl)c(C2=C(O)C3(CCC(OC)CC3)NC2=O)c(C2CC2)c1 (stereo not drawn) [Example E24] | 100% | 100% | 100% | 100% | 100% | 100% | 100% | 100% | 100% | 100% | 100% | 100% |  |
